The melting point is the temperature of the solid-liquid transition. As a reminder, the IC50 is the midpoint of a concentration-inhibition curve. In general, CC50 refers to the concentration at which the toxic effect on the cells reaches its halfway point.

This is an account of results in patent US20060049177A1, “Induction heating cooker” (LG Electronics Inc., priority 2004, published 2006).

Like-named read-outs stand apart in the source and are kept apart here.

For one data set, the system named is HIV-1. The experiment in a line: in vitro anti-HIV assay: inhibition of HIV-induced cytopathic effect in MT-4 cells (MTT). Type of data set: cell-based. The conditions noted are these: for IC50: HIV-infected MT-4 cells, dose achieving 50% protection against cytopathic effect, MTT, OD 540 nm, mean value, read-out: IC50; for SI: selectivity index = ratio of CC50 to IC50. As for the experimental part: (§1) A rapid, sensitive and automated assay procedure was used for the in vitro evaluation of anti-HIV agents. An […] T4-cell line, MT-4, which was previously shown (Koyanagi et al., Int. J. Cancer, 36, 445-451, 1985) to be highly susceptible to and permissive for HIV infection, served as the target cell line. Inhibition of the HIV-induced cytopathic effect was used as the end point. The viability of both HIV- and mock-infected cells was assessed spectrophotometrically via the in situ reduction of 3-(4,5-dimethylthiazol-2-yl)-2,5-diphenyltetrazolium bromide (MTT). The 50% […], cytotoxic concentration (CC50 in μM) was defined as the concentration of compound that reduced the absorbance of the mock-infected control sample by 50%. The percent protection achieved by the compound in HIV-infected cells was calculated by the following formula: [formula]
(§2) whereby (ODT)HIV is the optical density measured with a given concentration of the test compound in HIV-infected cells; (ODC)HIV is the optical density measured for the control untreated HIV-infected cells; (ODC)MOCK is the optical density measured for the control untreated mock-infected cells; all optical density values were determined at 540 nm. The dose achieving 50% protection according to the above formula was defined as the 50% inhibitory concentration (IC50 in μM). The ratio of CC50 to IC50 was defined as the selectivity index (SI).

Data set [1] in a line: cytotoxicity in mock-infected MT-4 cells (MTT). The conditions noted are these: human, mock-infected MT-4 cells. As for the experimental part: as §1, §2
The next data set deals with MT-4 cells. The experiment in a line: cytotoxicity in mock-infected MT-4 cells (MTT). As for the experimental part: as §1, §2
Setting [2] is: Human immunodeficiency virus 1, MT4.

Take `CC(C)NC(=O)Nc1nc(Cc2c(Cl)cccc2Cl)nc(Nc2ccc(C#N)cc2)n1` [Compound 6, N-[4-[(4-cyano-phenyl)amino]-6-[(2,6-dichlorophenyl)methyl]-1,3,5-triazin-2-yl]-N′-(1-methylethyl)-urea]: the melting point was 267 to 268 °C. In addition, the IC50 in the data set with HIV-1 (setting [2]) worked out at 0.38 µM. The SI in the data set on HIV-1 is greater than 263.
In the case of `CNc1nc(Cc2c(Cl)cccc2Cl)nc(Nc2ccc(C#N)cc2)n1` [Compound 7, 4-[[4-[(2,6-dichlorophenyl)methyl]-6-(methyl-amino)-1,3,5-triazin-2-yl]amino]benzonitrile], the melting point lay in the range of 229 to 230 °C. This compound yielded a CC50 in data set [1] greater than 100 µM. The IC50 in the data set on HIV-1 (setting [2]) was found to be 0.01 µM. Besides, in the data set on HIV-1, the SI was greater than 14285.
`NC(=O)c1ccc(Nc2nc(N)nc(Cc3c(Cl)ccc4[nH]ccc34)n2)cc1` [Compound 9, 4-[[4-amino-6-[(5-chloro-1H-indol-4-yl)methyl]-1,3,5-triazin-2-yl]amino]benzamide] gave a melting point of 204 to 205 °C. The IC50 in the data set with HIV-1 (setting [2]) is 0.066 µM. For the same compound, the SI in the data set on HIV-1 turned out to be 830.
In the data set with MT-4 cells, `CCOC(=O)N(C(=O)OCC)c1nc(Cc2c(Cl)cccc2Cl)nc(N(C(=O)OCC)c2ccc(C#N)cc2)n1` [Compound 41] registered a CC50 of 40.2 µM. Also, in the data set on HIV-1, the concentration for half-maximal inhibition (IC50) turned out to be 0.013 µM and the SI amounted to 3125.
The compound `N#Cc1ccc(Nc2nc(N)nc(Cc3c(Cl)ccc(Cl)c3Cl)n2)cc1` [Compound 44] gave a CC50 in the data set with MT-4 cells greater than 100 µM. Moreover, in the data set on HIV-1, the IC50 is 0.003 µM and the SI was greater than 35087.
`N#Cc1ccc(Nc2nc(N)nc(Cc3cccc(OC(F)(F)F)c3)n2)cc1` [Compound 45]: the CC50 with MT-4 cells was greater than 100 µM. In the data set on HIV-1, the IC50 is 0.43 µM and the SI was greater than 233.
For `COc1ccc(OC)c(Cc2nc(N)nc(Nc3ccc(C#N)cc3)n2)c1` [Compound 46] the same measures were greater than 100 µM, 0.04 µM and greater than 2506.
The matching figures for `Cc1ccc(C)c(Cc2nc(N)nc(Nc3ccc(C#N)cc3)n2)c1` [Compound 49]: greater than 20 µM, 0.091 µM and greater than 220.
The matching figures for `COc1cccc(Cc2nc(N)nc(Nc3ccc(C#N)cc3)n2)c1OC` [Compound 50]: greater than 20 µM, 0.079 µM and greater than 252.
In the data set with MT-4 cells, `N#Cc1ccc(Nc2nc(N)nc(Cc3cc(F)ccc3F)n2)cc1` [Compound 51] returned a CC50 greater than 20 µM. In the data set with HIV-1, the IC50 stood at 0.031 µM and the SI is given as greater than 640.
The matching figures for `COc1cc(Cc2nc(N)nc(Nc3ccc(C#N)cc3)n2)cc(OC)c1` [Compound 53]: greater than 20 µM, 0.41 µM and greater than 48.
For `Cc1cc(C)c(C)c(Cc2nc(N)nc(Nc3ccc(C#N)cc3)n2)c1C` [Compound 54] the same measures were 43.8 µM, 0.005 µM and 9515.
The matching figures for `COc1ccc(Br)cc1Cc1nc(N)nc(Nc2ccc(C#N)cc2)n1` [Compound 55]: greater than 20 µM, 0.052 µM and greater than 384.
As for `N#Cc1ccc(Nc2nc(N)nc(Cc3cc(C(F)(F)F)ccc3C(F)(F)F)n2)cc1` [Compound 56], the CC50 in the data set on MT-4 cells was greater than 100 µM. Further, the IC50 in the data set with HIV-1 is greater than 74.4 µM.
Compound `Cc1ccc(C)c(Cc2nc(N)nc(Nc3ccc(C#N)cc3)n2)c1` [Compound 57] came in with a CC50 with MT-4 cells of 36.8 µM. Also, in the data set with HIV-1, the IC50 amounted to 0.003 µM and the SI worked out at 11883.
As for `N#Cc1ccc(Nc2nc(N)nc(Cc3c(F)cccc3C(F)(F)F)n2)cc1` [Compound 58], in the data set on MT-4 cells, the midpoint of cytotoxicity, the CC50, lay at 20 µM. In the data set with HIV-1, the IC50 amounted to 0.014 µM and the SI worked out at 1418.
In turn, `N#Cc1ccc(Nc2nc(N)nc(Cc3cc(F)cc(F)c3)n2)cc1` [Compound 59] displayed a CC50 in the data set on MT-4 cells greater than 100 µM. In addition, in the data set with HIV-1, the IC50 stood at 0.42 µM and the SI is greater than 241.
For `COc1ccc(C(C)=O)cc1Cc1nc(N)nc(Nc2ccc(C#N)cc2)n1` [Compound 60] the same measures were 71.4 µM, 0.039 µM and 1841.
Regarding `CCO.Cl.N#Cc1ccc(Nc2nc(N)nc(C(CC3CC3)c3c(Cl)cccc3Cl)n2)cc1` (stereo not drawn) [Compound 61], it took 53.4 µM to reach half-maximal cytotoxicity in the data set on MT-4 cells (CC50). In the data set on HIV-1, the IC50 is 6.9 µM and the SI is recorded as 7.
The matching figures for “(±)-2-[[4-[(4-cyanophenyl)amino]-6-[(2,6-dichlorophenyl)amino]-6-[(2,6-dichloro-phenyl)methyl]-1,3,5-triazin-2-yl]amino-4-hydroxybutanamide [Compound 34]”: 42.3 µM, 0.057 µM and 746.
